Measured values reported in ChEMBL document CHEMBL1909046, “DrugMatrix in vitro pharmacology data”.

Columns and labels:
[1] = DRUGMATRIX: Leukotriene, BLT (LTB4) radioligand binding (ligand: [3H]LTB4); type: cell membranes, Membrane; conditions: u-937; Not Active = under 50% inhibition at 10 µM
[2] = target: T1, 5-hydroxytryptamine receptor 1A (Rattus norvegicus, UniProt P19327); type: cell membranes, CHO-K1, Membrane; conditions: cho-k1; note: in other assays of this panel Not Active means under 50% inhibition at 10 µM
T1 sequence (P19327 whole entry): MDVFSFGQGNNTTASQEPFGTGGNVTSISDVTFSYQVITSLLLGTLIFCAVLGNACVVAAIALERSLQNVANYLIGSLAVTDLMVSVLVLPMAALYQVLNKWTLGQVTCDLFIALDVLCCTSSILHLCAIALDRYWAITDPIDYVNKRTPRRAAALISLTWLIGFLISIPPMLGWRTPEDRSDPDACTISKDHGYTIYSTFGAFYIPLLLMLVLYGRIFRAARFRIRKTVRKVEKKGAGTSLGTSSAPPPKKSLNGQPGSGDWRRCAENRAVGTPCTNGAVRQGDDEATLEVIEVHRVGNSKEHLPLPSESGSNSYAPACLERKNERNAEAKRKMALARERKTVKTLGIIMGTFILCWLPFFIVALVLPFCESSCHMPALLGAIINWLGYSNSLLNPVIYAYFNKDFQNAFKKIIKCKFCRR

Thromboxane-A synthase = target: T2, Thromboxane-A synthase (Homo sapiens, UniProt P24557); test: biochemical; type: tissue-based, Platelet; conditions: platelet;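 note: enzyme inhibition assay with PGH2 supplied as substrate; in other assays of this panel Not Active means under 50% inhibition at 10 µM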
T2 sequence (P24557 whole entry): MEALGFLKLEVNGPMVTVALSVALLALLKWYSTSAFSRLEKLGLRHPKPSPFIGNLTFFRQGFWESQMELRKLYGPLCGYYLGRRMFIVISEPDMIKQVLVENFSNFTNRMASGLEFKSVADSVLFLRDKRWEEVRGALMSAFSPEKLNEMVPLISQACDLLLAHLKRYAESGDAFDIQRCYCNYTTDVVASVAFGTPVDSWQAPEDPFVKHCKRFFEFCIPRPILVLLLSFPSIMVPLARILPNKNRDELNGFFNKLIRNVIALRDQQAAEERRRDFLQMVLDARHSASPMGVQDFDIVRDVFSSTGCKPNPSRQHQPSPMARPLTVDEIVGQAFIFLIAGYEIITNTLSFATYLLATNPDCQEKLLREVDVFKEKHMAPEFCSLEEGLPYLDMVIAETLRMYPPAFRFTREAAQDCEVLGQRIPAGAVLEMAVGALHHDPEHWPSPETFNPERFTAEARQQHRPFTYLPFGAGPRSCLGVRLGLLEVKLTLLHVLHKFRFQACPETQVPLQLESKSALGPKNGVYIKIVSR

[3] = target: Protein phosphatase 3 catalytic subunit alpha (Homo sapiens, UniProt Q08209); parameters: species or system Escherichia coli;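 note: inhibition of calcineurin (PP2B) enzyme activity, measured with DiFMUP as the substrate; in other assays of this panel Not Active means under 50% inhibition at 10 µM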
[4] = DRUGMATRIX: Interleukin IL-1 radioligand binding (ligand: [125I] interleukin 1beta); type: cell membranes, Membrane; conditions: nih3t3; Not Active = under 50% inhibition at 10 µM
Substance-P receptor = Substance-P receptor (Homo sapiens, UniProt P25103); type: cell membranes, CHO, Membrane; conditions: cho; note: in other assays of this panel Not Active means under 50% inhibition at 10 µM
[5] = target: T3, Muscarinic acetylcholine receptor M2 (Homo sapiens, UniProt P08172); type: cell membranes, CHO-K1, Membrane; conditions: cho-k1; note: in other assays of this panel Not Active means under 50% inhibition at 10 µM
T3 sequence (P08172 whole entry): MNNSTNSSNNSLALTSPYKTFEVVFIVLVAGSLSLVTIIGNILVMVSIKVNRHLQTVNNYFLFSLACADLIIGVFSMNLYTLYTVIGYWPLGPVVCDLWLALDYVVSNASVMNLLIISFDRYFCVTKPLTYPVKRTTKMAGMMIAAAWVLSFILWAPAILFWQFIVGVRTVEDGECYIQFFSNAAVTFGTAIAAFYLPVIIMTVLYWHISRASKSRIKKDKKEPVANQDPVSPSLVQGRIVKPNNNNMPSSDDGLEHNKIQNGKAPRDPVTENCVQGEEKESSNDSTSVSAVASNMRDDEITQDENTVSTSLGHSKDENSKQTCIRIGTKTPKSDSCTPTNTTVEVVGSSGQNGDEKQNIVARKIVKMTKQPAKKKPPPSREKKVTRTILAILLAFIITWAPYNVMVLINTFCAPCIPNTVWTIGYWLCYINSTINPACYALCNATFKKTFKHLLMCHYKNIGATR

Substance-P receptor, sequence (P25103 whole entry): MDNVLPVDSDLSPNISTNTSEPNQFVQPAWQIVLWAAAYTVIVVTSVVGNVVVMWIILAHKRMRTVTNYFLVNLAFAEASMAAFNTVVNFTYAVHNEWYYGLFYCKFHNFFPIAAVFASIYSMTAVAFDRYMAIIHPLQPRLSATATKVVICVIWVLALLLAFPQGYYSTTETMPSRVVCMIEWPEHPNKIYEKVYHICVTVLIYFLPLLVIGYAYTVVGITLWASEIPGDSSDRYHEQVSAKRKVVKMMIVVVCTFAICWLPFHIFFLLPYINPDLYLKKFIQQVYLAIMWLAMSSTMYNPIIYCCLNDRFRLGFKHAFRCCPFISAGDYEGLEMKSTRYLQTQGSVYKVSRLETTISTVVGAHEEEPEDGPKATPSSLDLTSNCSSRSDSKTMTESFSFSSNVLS

O=C(c1ccccc1C(F)(F)F)N1CCC(Cc2ccccc2)CC1
Not Active: IC50 [1] | Ki [1] | IC50 [2] | IC50 (Thromboxane-A synthase) | IC50 [3] | IC50 [4] | Ki [4] | IC50 (Substance-P receptor) | IC50 [5]

O=C/C=C/c1ccccc1
Not Active: IC50 [1] | Ki [1] | IC50 [2] | IC50 (Thromboxane-A synthase) | IC50 [3] | IC50 [4] | Ki [4] | IC50 (Substance-P receptor) | IC50 [5]

Nc1ccc2c3c(cccc13)C(=O)NC2=O
Not Active: IC50 [1] | Ki [1] | IC50 [2] | IC50 (Thromboxane-A synthase) | IC50 [3] | IC50 [4] | Ki [4] | IC50 (Substance-P receptor) | IC50 [5]

COc1ccc(C(=O)N2CCCC2=O)cc1
Not Active: IC50 [1] | Ki [1] | IC50 [2] | IC50 (Thromboxane-A synthase) | IC50 [3] | IC50 [4] | Ki [4] | IC50 (Substance-P receptor) | IC50 [5]

O=c1cnn([C@@H]2O[C@H](CO)[C@@H](O)[C@H]2O)c(=O)[nH]1 [6-AZAURIDINE]
Not Active: IC50 [1] | Ki [1] | IC50 [2] | IC50 (Thromboxane-A synthase) | IC50 [3] | IC50 [4] | Ki [4] | IC50 (Substance-P receptor) | IC50 [5]

CC[C@H](C)[C@H]1O[C@]2(C=C[C@@H]1C)C[C@@H]1C[C@@H](C/C=C(\C)[C@@H](O[C@H]3C[C@H](OC)[C@@H](O[C@H]4C[C@H](OC)[C@@H](O)[C@H](C)O4)[C@H](C)O3)[C@@H](C)/C=C/C=C3\CO[C@@H]4[C@H](O)C(C)=C[C@@H](C(=O)O1)[C@]34O)O2.CO[C@H]1C[C@H](O[C@H]2[C@H](C)O[C@@H](O[C@@H]3/C(C)=C/C[C@@H]4C[C@@H](C[C@]5(C=C[C@H](C)[C@@H](C(C)C)O5)O4)OC(=O)[C@@H]4C=C(C)[C@@H](O)[C@H]5OC/C(=C\C=C\[C@@H]3C)[C@]54O)C[C@@H]2OC)O[C@@H](C)[C@@H]1O [ABAMECTIN]
Not Active: IC50 [1] | Ki [1] | IC50 [2] | IC50 (Thromboxane-A synthase) | IC50 [3] | IC50 [4] | Ki [4] | IC50 (Substance-P receptor) | IC50 [5]

NCCCC(O)(P(=O)(O)O)P(=O)(O)O [ALENDRONIC ACID]
Not Active: IC50 [1] | Ki [1] | IC50 [2] | IC50 (Thromboxane-A synthase) | IC50 [3] | IC50 [4] | Ki [4] | IC50 (Substance-P receptor) | IC50 [5]

Cc1nnc2n1-c1ccc(Cl)cc1C(c1ccccc1)=NC2 [ALPRAZOLAM]
Not Active: IC50 [1] | Ki [1] | IC50 [2] | IC50 (Thromboxane-A synthase) | IC50 [3] | IC50 [4] | Ki [4] | IC50 (Substance-P receptor) | IC50 [5]

Cn1c(=O)c2[nH]cnc2n(C)c1=O.Cn1c(=O)c2[nH]cnc2n(C)c1=O.NCCN [AMINOPHYLLINE]
Not Active: IC50 [1] | Ki [1] | IC50 [2] | IC50 (Thromboxane-A synthase) | IC50 [3] | IC50 [4] | Ki [4] | IC50 (Substance-P receptor) | IC50 [5]

CCC1(CCC(C)C)C(=O)NC(=O)NC1=O [AMOBARBITAL]
Not Active: IC50 [1] | Ki [1] | IC50 [2] | IC50 (Thromboxane-A synthase) | IC50 [3] | IC50 [4] | Ki [4] | IC50 (Substance-P receptor) | IC50 [5]

CC1(C)S[C@@H]2[C@H](NC(=O)[C@H](N)c3ccccc3)C(=O)N2[C@H]1C(=O)O [AMPICILLIN]
Not Active: IC50 [1] | Ki [1] | IC50 [2] | IC50 (Thromboxane-A synthase) | IC50 [3] | IC50 [4] | Ki [4] | IC50 (Substance-P receptor) | IC50 [5]

COc1ccc(C2C(=O)c3ccccc3C2=O)cc1 [ANISINDIONE]
Not Active: IC50 [1] | Ki [1] | IC50 [2] | IC50 (Thromboxane-A synthase) | IC50 [3] | IC50 [4] | Ki [4] | IC50 (Substance-P receptor) | IC50 [5]

O=C1O[C@H]([C@@H](O)CO)C(O)=C1O [ASCORBIC ACID]
Not Active: IC50 [1] | Ki [1] | IC50 [2] | IC50 (Thromboxane-A synthase) | IC50 [3] | IC50 [4] | Ki [4] | IC50 (Substance-P receptor) | IC50 [5]

CN1[C@@H]2CC[C@H]1C[C@@H](OC(=O)C(CO)c1ccccc1)C2 (stereo partly drawn) [ATROPINE]
Not Active: IC50 [1] | Ki [1] | IC50 [2] | IC50 (Thromboxane-A synthase) | IC50 [3] | IC50 [4] | Ki [4] | IC50 (Substance-P receptor)

CC(C(=O)O)c1ccc2oc(-c3ccc(Cl)cc3)nc2c1 (stereo not drawn) [BENOXAPROFEN]
Not Active: IC50 [1] | Ki [1] | IC50 [2] | IC50 (Thromboxane-A synthase) | IC50 [3] | IC50 [4] | Ki [4] | IC50 (Substance-P receptor) | IC50 [5]

COc1ccc2cc3[n+](cc2c1OC)CCc1cc2c(cc1-3)OCO2.[Cl-] [BERBERINE CHLORIDE]
Not Active: IC50 [1] | Ki [1] | IC50 [2] | IC50 (Thromboxane-A synthase) | IC50 [3] | IC50 [4] | Ki [4] | IC50 (Substance-P receptor) | IC50 [5]
